Results published in ChEMBL document CHEMBL1201862, “PubChem BioAssay data set” (2004).
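Exposure lasted 48 hours, with cells grown in 96-well plates and compounds tested at five concentrations. The concentration for 50% growth inhibition is given as GI50.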 The source made the active and inactive calls. Rule as the data show it: active = GI50 up to about 1.1 µM and inactive = higher.

Tests used:
Assay in all cases: NCI-60 cell line screen, 48 h
HOP-92 = tested on: HOP-92
SR = tested on: SR
ACHN = tested on: ACHN
TK-10 = tested on: TK-10
SW-620 = tested on: SW-620
SF-268 = tested on: SF-268
KM12 = tested on: KM12
NCI-H226 = tested on: NCI-H226
SNB-19 = tested on: SNB-19
OVCAR-3 = tested on: OVCAR-3
NCI-H23 = tested on: NCI-H23
NCI-H460 = tested on: NCI-H460
Malme-3M = tested on: Malme-3M
UACC-62 = tested on: UACC-62
SK-MEL-5 = tested on: SK-MEL-5
LOX IMVI = tested on: LOX IMVI

Measured: GI50

O=C1OC(=O)C2C1C1C(c3ccccc3)=C(c3ccccc3)C2(O)C2C(=O)OC(=O)C12 (stereo unspecified)
inactive: HOP-92 65.6 µM | SR 78.5 µM | ACHN > 100 µM | TK-10 > 100 µM | SW-620 80.7 µM | SF-268 > 100 µM | KM12 > 100 µM | NCI-H226 > 100 µM | SNB-19 > 100 µM | OVCAR-3 > 100 µM | NCI-H23 65.3 µM | NCI-H460 > 100 µM | Malme-3M > 100 µM | UACC-62 > 100 µM

Cc1nc2nn(C)cc2c(=O)n1/N=C/c1ccccc1
inactive: SR > 100 µM | ACHN > 100 µM | TK-10 > 100 µM | SW-620 > 100 µM | SF-268 > 100 µM | SK-MEL-5 > 100 µM | LOX IMVI > 100 µM | KM12 > 100 µM | NCI-H226 > 100 µM | SNB-19 > 100 µM | OVCAR-3 > 100 µM | NCI-H23 > 100 µM | NCI-H460 > 100 µM | Malme-3M > 100 µM | UACC-62 > 100 µM

O=C1C[C@@H]2[C@@H](CCC23CCCC3)N1
inactive: ACHN > 100 µM | TK-10 > 100 µM | SW-620 > 100 µM | SF-268 > 100 µM | SK-MEL-5 > 100 µM | LOX IMVI > 100 µM | KM12 > 100 µM | NCI-H226 > 100 µM | SNB-19 > 100 µM | OVCAR-3 > 100 µM | NCI-H23 > 100 µM | NCI-H460 > 100 µM | Malme-3M > 100 µM | UACC-62 > 100 µM

CC1=C(c2ccccc2)C(c2ccccc2)=C(c2ccccc2)C2(c3ccccc3)C(=O)C(C)CN12 (stereo unspecified)
inactive: SR 26.4 µM | ACHN 41.4 µM | SW-620 79.1 µM | SF-268 > 100 µM | SK-MEL-5 59 µM | LOX IMVI 58.7 µM | KM12 43.1 µM | NCI-H226 21 µM | SNB-19 26.5 µM | OVCAR-3 34.7 µM | NCI-H460 32.7 µM | Malme-3M > 100 µM | UACC-62 10.3 µM

Cc1c(C)n(COCCO)c2ncnc(N)c12
inactive: HOP-92 > 100 µM | SR > 100 µM | ACHN > 100 µM | TK-10 > 100 µM | SW-620 > 100 µM | SF-268 > 100 µM | SK-MEL-5 > 100 µM | KM12 > 100 µM | NCI-H226 > 100 µM | SNB-19 > 100 µM | OVCAR-3 > 100 µM | NCI-H23 > 100 µM | NCI-H460 > 100 µM

C[C@]12CCC3[C@@H](CC[C@@H]4c5nonc5CC[C@]34C)C1C/C(=N/O)C2=O (stereo partly specified)
inactive: HOP-92 46.5 µM | ACHN 41 µM | TK-10 51.1 µM | SW-620 > 100 µM | SF-268 11.2 µM | SK-MEL-5 > 100 µM | LOX IMVI 11.2 µM | KM12 > 100 µM | NCI-H226 > 100 µM | SNB-19 > 100 µM | OVCAR-3 39.7 µM | NCI-H23 > 100 µM | NCI-H460 > 100 µM | Malme-3M > 100 µM | UACC-62 63.7 µM

O=C1C=CC(=O)c2c1ccc1c3ccccc3n(-c3ccccn3)c21
inactive: HOP-92 15.6 µM | ACHN 21.2 µM | TK-10 16.7 µM | SF-268 31.7 µM | KM12 > 100 µM | NCI-H226 13.2 µM | OVCAR-3 24.7 µM | NCI-H23 36.6 µM | NCI-H460 > 100 µM | Malme-3M 17.8 µM

CCOc1ccc2c(c1)[n+]([O-])c(-c1ccc(Br)cc1)c(N)[n+]2[O-]
inactive: ACHN 47.2 µM | TK-10 > 100 µM | SW-620 > 100 µM | SF-268 42.8 µM | SK-MEL-5 20.8 µM | LOX IMVI > 100 µM | KM12 85.5 µM | NCI-H226 > 100 µM | SNB-19 57.3 µM | OVCAR-3 48.1 µM | NCI-H23 22.8 µM | NCI-H460 47.3 µM | Malme-3M 55.6 µM | UACC-62 38.1 µM

CN(C)c1ccc(/C=N\N2C(=O)c3ccccc3C2=O)cc1
inactive: HOP-92 > 100 µM | SR > 100 µM | ACHN > 100 µM | TK-10 > 100 µM | SW-620 > 100 µM | SF-268 > 100 µM | SK-MEL-5 > 100 µM | LOX IMVI > 100 µM | KM12 > 100 µM | NCI-H226 > 100 µM | SNB-19 > 100 µM | OVCAR-3 > 100 µM | NCI-H23 > 100 µM | NCI-H460 > 100 µM | Malme-3M > 100 µM | UACC-62 > 100 µM

C[C@]12Cc3conc3C(O)=C1CC[C@@H]1C2CC[C@@]2(C)C1CC[C@]2(C)O (stereo partly specified)
inactive: HOP-92 32.4 µM | ACHN 26.5 µM | TK-10 24 µM | SW-620 21.1 µM | SF-268 28.8 µM | SK-MEL-5 13.6 µM | LOX IMVI 1.79 µM | KM12 13.7 µM | NCI-H226 14.8 µM | SNB-19 25.3 µM | OVCAR-3 18.4 µM | NCI-H23 19.5 µM | NCI-H460 13.6 µM | Malme-3M 18.5 µM | UACC-62 10.4 µM

COC(=O)CCC(=O)CC(=O)C(=O)Nc1ccc(F)cc1
inactive: HOP-92 > 100 µM | ACHN > 100 µM | TK-10 > 100 µM | SW-620 > 100 µM | SF-268 > 100 µM | SK-MEL-5 > 100 µM | LOX IMVI > 100 µM | KM12 > 100 µM | NCI-H226 > 100 µM | SNB-19 > 100 µM | OVCAR-3 > 100 µM | NCI-H23 > 100 µM | NCI-H460 > 100 µM | Malme-3M > 100 µM | UACC-62 > 100 µM

COc1ccc2c(CCNC(=O)/C=C/c3ccccc3)c(C(C)=O)[nH]c2c1[N+](=O)[O-]
inactive: SR 7.28 µM | ACHN 50.4 µM | SW-620 5.38 µM | SF-268 4.26 µM | LOX IMVI 5.64 µM | KM12 7.73 µM | NCI-H226 20.9 µM | SNB-19 48.6 µM | OVCAR-3 10.1 µM | NCI-H23 3.78 µM | NCI-H460 6.12 µM | UACC-62 10.2 µM

C[C@]12CCC3[C@@H](CC[C@@H]4c5nonc5CC[C@]34C)C1CCC2=O (stereo partly specified)
inactive: HOP-92 20.8 µM | ACHN 24.5 µM | TK-10 29 µM | SW-620 37.2 µM | SF-268 33.6 µM | SK-MEL-5 16.9 µM | LOX IMVI 19.6 µM | KM12 20.7 µM | NCI-H226 20 µM | SNB-19 40.4 µM | OVCAR-3 17.1 µM | NCI-H23 24.5 µM | NCI-H460 19.2 µM | Malme-3M 23.3 µM | UACC-62 17.3 µM

O=S1(=O)NN=C(NCc2ccc(Cl)cc2)c2ccccc21
inactive: HOP-92 35.3 µM | ACHN > 100 µM | SW-620 > 100 µM | SF-268 > 100 µM | SK-MEL-5 > 100 µM | LOX IMVI 69 µM | KM12 > 100 µM | NCI-H226 > 100 µM | SNB-19 > 100 µM | OVCAR-3 > 100 µM | NCI-H460 > 100 µM | Malme-3M > 100 µM | UACC-62 83.6 µM

COC(=O)C1=Cc2cn(S(=O)(=O)c3ccc(C)cc3)c3cccc(c23)C(C=C(C)C)N1C(C)=O (stereo unspecified)
inactive: HOP-92 12.7 µM | SR 12.4 µM | ACHN 18.8 µM | TK-10 38.9 µM | SW-620 32.7 µM | SF-268 93.5 µM | SK-MEL-5 10.5 µM | LOX IMVI 71.1 µM | KM12 > 100 µM | NCI-H226 > 100 µM | SNB-19 49 µM | OVCAR-3 9.14 µM | NCI-H23 36.9 µM | Malme-3M 16.8 µM | UACC-62 47.4 µM

Nc1ccn(CCCC(c2ccccc2)P(=O)(O)O)c(=O)n1 (stereo unspecified)
inactive: HOP-92 91.4 µM | SR > 100 µM | ACHN > 100 µM | TK-10 > 100 µM | SW-620 > 100 µM | SF-268 > 100 µM | SK-MEL-5 > 100 µM | LOX IMVI > 100 µM | KM12 > 100 µM | SNB-19 > 100 µM | OVCAR-3 > 100 µM | NCI-H23 > 100 µM | NCI-H460 > 100 µM | Malme-3M > 100 µM | UACC-62 > 100 µM

Cc1[nH]c(O)nc1C(=O)c1ccc(-n2ccnc2)cc1
inactive: SR > 100 µM | ACHN > 100 µM | SW-620 > 100 µM | SF-268 > 100 µM | SK-MEL-5 > 100 µM | LOX IMVI > 100 µM | KM12 > 100 µM | NCI-H226 > 100 µM | SNB-19 > 100 µM | OVCAR-3 > 100 µM | NCI-H460 > 100 µM | Malme-3M > 100 µM | UACC-62 > 100 µM

O=C(O)CN(c1ccc(F)cc1)S(=O)(=O)c1ccccc1
inactive: HOP-92 > 100 µM | ACHN > 100 µM | TK-10 > 100 µM | SW-620 > 100 µM | SF-268 > 100 µM | SK-MEL-5 > 100 µM | LOX IMVI > 100 µM | KM12 > 100 µM | NCI-H226 > 100 µM | SNB-19 > 100 µM | OVCAR-3 > 100 µM | NCI-H23 > 100 µM | NCI-H460 > 100 µM | Malme-3M > 100 µM | UACC-62 > 100 µM

O=C1c2ccccc2C(=O)c2c(O)ccc(O)c21 [QUINIZARIN]
inactive: HOP-92 > 100 µM | ACHN > 100 µM | TK-10 > 100 µM | SW-620 93.8 µM | SF-268 > 100 µM | SK-MEL-5 63.1 µM | LOX IMVI > 100 µM | KM12 60.5 µM | SNB-19 > 100 µM | OVCAR-3 29.2 µM | NCI-H23 > 100 µM | NCI-H460 40.8 µM | Malme-3M > 100 µM | UACC-62 > 100 µM
